Data: patent publication US5273989A, “3,5-disubstituted 2-isoxazolines and isoxazoles, agents containing them and their use” (Hoechst Aktiengesellschaft, priority 1990, dated 1993)
Structures can show the parent of a compound that is named as a salt. Where two headings read alike, the source gives them in different places.

Tests used:
[1] = tested on: high affinity 3H-D-aspartate absorption, synaptic vesicles (synaptosomes) from rat cortex; assay: "High affinity" absorption of 3H-aspartate in a vesicle preparation from rat brain; format: biochemical; settings: preparation concentration 100 μM; relative to control values (100%)
Protocol: 1. "High affinity" absorption of ^3 H-aspartate in a vesicle preparation from rat brain.
Test principle: Fresh synaptic vesicles (synaptosomes) from rat cortex are incubated with buffer solution and ^3 H-D-aspartate and ^3 H-D-aspartate in the vesicles is measured. Preparations which in comparison to control synaptosomes increase the high affinity ^3 H-D-aspartate absorption and those which prevent the loss of ^3 H-D-aspartate by reliberation are regarded as particularly interesting.
Experimental protocol: The experiments for ^3 H-D-aspartate absorption were carried out by the method of Anand et al. (Biochem. Pharmacol., 35 (1986), 1055-1057). The synaptic vesicles were dissected out of cerebral cortex from male Sprague-Dawley rats. The preparations were tested at four concentrations as double samples in parallel with control samples containing buffer. The incubation medium (pH 7.4) contains: 1.2 mM KH2 PO4, 5 mM KCl, 5 mM pyruvate, 1.2 mM glucose, 1.2 mM MgCl2, 114 mM NaCl, 25 mM NaHCO3. For the non-specific ^3 H-D-aspartate absorption, NaCl was replaced by 114 mM choline chloride and NaHCO3 by 25 mM KHCO3. An aliquot of the vesicle suspension (about 25 μg/ml of test solution) was added to the test sample which was temperature controlled at 37° C. and aerated with Carbogen (5% CO2, 95% O2) and preincubated for 2 minutes. The three minutes incubation for the amino acid absorption was started by addition of 50 μl of ^3 H-D-aspartate (specific activity 25 Ci/mmol, 10 pmol/ml of test solution). The vesicles were separated from the incubation medium by filtration and additional washing of the adhering labeled amino acids using a Titertek cell harvester (Flow Laboratories, Meckenheim). The ^3 H-D-aspartate absorption was measured by means of a liquid scintillation counter (Canberra-Packard, Model 1500, Frankfurt).
The preparation activity is indicated in percent of the specific ^3 H-D-aspartate absorption, relative to control values (100%), in Table 3. Adenosine triphosphate (ATP) was used for comparison as the standard substance (see Table 3) and at 1 mM caused a 35% increase in the ^3 H-D-aspartate absorption.

[2] = tested on: NMDA-stimulated 3H-acetylcholine release, striatum sections; assay: Inhibition of NMDA-stimulated 3H-acetylcholine release from striatum sections of the rat brain; format: cell-based; settings: preparation concentration 10 μM, 25 μmol/l NMDA stimulus, relative to control S2/S1, read-out: Inhibition of 3H-acetylcholine release from striatum sections, Inhibition (%)
Protocol: 2. Inhibition of ^3 H-acetylcholine release from striatum sections of the rat brain
Test principle: For the test, fresh striatum sections from rat brain were rinsed with buffer solution in a special chamber and the release of the tritium-labeled acetylcholine was measured after stimulation with NMDA. Preparations having NMDA-antagonist action inhibit acetylcholine release.
Experimental protocol: The superfusion experiments were carried out by the method of Wichman et al. (Naunyn-Schmied. Arch. Pharmacol., 338 (1988), 623-631). Rat brain sections, 0.5 mm thick, were preincubated for 30 min in 2 ml of incubation medium which contains 0.1 μmol/l of ^3 H-choline having a specific activity of 80 Ci/mmol. In each of 6 superfusion chambers, a section was transferred and superfused for 90 min at a rate of 1.5 ml/min. 2 min fraction of the superfusate were continuously collected. Each section was superfused twice with 25 μmol/l of NMDA of two minutes each time in order to stimulate the release of acetylcholine. The first stimulus (S1) takes place between the 54th and the 56th minute and the 2nd stimulus (S2) between the 76th and 78th minute. The incubation medium contained, in mmol/l: NaCl 118, KCl 4.8, CaCl2 1.2, MgSO4 1.2, NaHCO3 25, KH2 PO4 1.2 and glucose 10. The medium was saturated with Carbogen at 37° C. The pH was adjusted to 7.4 NMDA and the novel preparations to be tested were dissolved in superfusion medium. The superfusion was carried out using Mg^2+ -free medium. Tritium from the dissolved sections and from the superfusate was determined by liquid scintillation counting using a Packard® 1900 CA (Frankfurt) at a 50% efficiency.
Calculation of the Results
Basal release and NMDA-stimulated release for S1 and S2 were expressed in %/min of each fraction (Limberger et al, Naunyn Schmied. Arch. Pharmacol. 339 (1988), 53-61).
The value for the stimulated release S2 /S1 was calculated for the control as 0.69±0.09. The value decreases if a substance, such as, for example, the NMDA receptor antagonist CPP (3-(+)-2-carboxypiperazin-4-ylpropyl-1-phosphonic acid) known from the literature inhibited the NMDA-stimulated release. The inhibition of the stimulated release by preparations was calculated in percent, relative to the control value, and is indicated in Table 4.

[3] = tested on: NMDA receptor-channel complex; assay: Inhibition of 3H-MK-801 binding to membranes from rat brain; settings: preparation concentration 50 μM; 3H-MK801 1 nM
Protocol: 3. Inhibition of ^3 H-MK-801 binding to membranes from rat brain
Test principle: MK-801 is a non-competitive antagonist which binds to ion channels coupled to NMDA receptors (Yoneda et al., Brain Res. 499 (1989), 305). Membranes from whole brain containing preparation and ^3 H-MK-801 are incubated in the test. The binding of ^3 H-MK-801 or its displacement by preparations (antagonists) is determined by radiochemical methods.
Experimental protocol: The binding experiments are carried out by the method of Reynolds et al. (Proc. Natl. Acad. Sci. USA, 84 (1987), 7744). Membrane preparation is first carried out according to Reynolds. Test samples are then pipetted, buffer and test preparation being initially introduced, then preincubated with protein for 2 minutes, and initiated using ^3 H-MK801. The membranes are thawed at 37° C., incubated at 37° C. for 10 minutes and homogenized for 15 seconds at half the maximum speed by means of a Polytron, then used in the cool state again. The incubation medium contains: pH 7.4 Hepes buffer 20 mM, preparations in three concentrations 5 μM, 10 μM and 50 μM, membranes 500 μg/ml of test solution, ^3 H-MK801 1 nM. Incubation is carried out at room temperature (23° C.) for 60 minutes and is then stopped by filtration. For this purpose, glass fiber paper No. 32 from Schleicher and Schull, which had been soaked in 0.03% polyethyleneimine for 30 minutes on the day before the experiment are counted in 4 ml of "Packard 199™" Scintillation fluid (Frankfurt). Tritium is determined by liquid scintillation counting using a Packard 1500.
Calculation of the results: The calculation of the binding in femtomol/mg of protein over a period of 60 min. was carried out using a small calculator (HP-97). If a substance antagonizes the binding, the value decreases. Substance activities are indicated in Table 5 as percentages, i.e. in % binding compared to the control. The activity of the comparison preparation CPP (3-(+)-2-carboxypiperazin-4-ylpropyl-1-phosphonic acid) at 5 μM, 10 μM and 50 μM is always determined to check the test.

[4] = tested on: CA1 pyramidal cells of the hippocampus after forebrain ischemia; assay: Neuroprotection after forebrain ischemia in the gerbil; settings: 50 mg/kg p.o., 15 minutes before ischemia
Protocol: A 5-minutes' ischemia of the forebrain with subsequent recirculation is produced in 20 male Mongolian gerbils under halothane anesthesia by bilateral closure of the corotid artery by means of aneurysm clips. 7 days later, the animals are decapitated under halothane anesthesia, the brains are fixed by immersion in Carnoy solution and the extent of neuron damage in the CA1 region of the hippocampus is determined "blind" with the aid of a 5-stage histopathological score. The test substance is administered intraperitoneally or orally 15 minutes before ischemia to each group of 10 gerbils. One ischemic control group, also of 10 animals, is treated with the respective solvents per test substance.

[5] = tested on: NMDA-induced cramps; assay: Inhibition of NMDA-induced cramps in the mouse; format: in vivo; settings: po, 1 h
Protocol: 4. Inhibition of NMDA-induced-cramps in the mouse
The examples listed below show neuroprotective activity in that they antagonize the cramps induced by NMDA (N-methyl-(D)-aspartate). To this end, intravenous injections of 20-30 mg/kg of NMDA are carried out on a male NMRI (Naval Medical Research Institute) mice of 22-24 g body weight, which leads to stereotypes, clonic cramps and in the majority of cases to mortality. In order to investigate an NMDA-antagonist activity of the test substances, they are administered orally one hour before NMDA. The animals are then observed for the abovementioned symptoms for up to 60 min. The number of animals with clonic cramps and the incidence of mortality, expressed in percent change compared to the control group, is regarded as the evaluation criterion.

[6] = Toxicity (LD50) in the mouse; settings: in vivo, iv
Excerpt: As the examples investigated show considerable differences in toxicity compared to the standard substances, the LD50 values are also listed in Table 6,

With `CC(C)[C@H]1CC[C@H](C)C[C@@H]1OC(=O)CCc1cc(C[N+](C)(C)C)on1` [Example 19, (+)-Menthyl 5-trimethylammoniomethylisoxazole-3-propionate iodide] the “Stimulation of the 3H-D-aspartate absorption, Stimulation (%)” value [1] was 25%, the inhibition at 10 µM [2] was 16% and the “Inhibition of 3H-MK-801 binding to the NMDA receptor-channel complex, inhibition (%)” value [3] was 16%. For the same molecule, the “Cell necroses (% change)” value ([4]; histopathological score CA1, treated versus control group) was -25 % change and the “Behavior score (% change)” value ([4]; treated versus control group) was 0 % change.

In the case of `CC(C)[C@@H]1CC[C@@H](C)C[C@H]1OC(=O)CCc1cc(CNC(=O)[C@@H](N)Cc2ccccc2)on1` [Example 21, (-)-Menthyl 5-(L-phenylalanylamino)methylisoxazole-3-propionatehydrochloride], the inhibition at 10 µM [2] is reported as 20%, the “Inhibition of 3H-MK-801 binding to the NMDA receptor-channel complex, inhibition (%)” value [3] is reported as 45% and the inhibition in vivo at 50 mg/kg ([5]; 50 mg/kg p.o., one hour before NMDA i.v., change compared to control group, read-out: Inhibition of convulsions) is reported as 30%. For the same molecule, the inhibition in vivo at 50 mg/kg ([5]; read-out: Inhibition of mortality) was 40% and the LD50 [6] was 25 to 50 mg/kg.
